Experimental data taken from the kinase profiling compilation of Christmann-Franck et al. (2016).

Target: SGK1 (human) (UniProt O00141)
Assay: Flashplate

Chain of SGK1 (human) (O00141 whole entry, looked up): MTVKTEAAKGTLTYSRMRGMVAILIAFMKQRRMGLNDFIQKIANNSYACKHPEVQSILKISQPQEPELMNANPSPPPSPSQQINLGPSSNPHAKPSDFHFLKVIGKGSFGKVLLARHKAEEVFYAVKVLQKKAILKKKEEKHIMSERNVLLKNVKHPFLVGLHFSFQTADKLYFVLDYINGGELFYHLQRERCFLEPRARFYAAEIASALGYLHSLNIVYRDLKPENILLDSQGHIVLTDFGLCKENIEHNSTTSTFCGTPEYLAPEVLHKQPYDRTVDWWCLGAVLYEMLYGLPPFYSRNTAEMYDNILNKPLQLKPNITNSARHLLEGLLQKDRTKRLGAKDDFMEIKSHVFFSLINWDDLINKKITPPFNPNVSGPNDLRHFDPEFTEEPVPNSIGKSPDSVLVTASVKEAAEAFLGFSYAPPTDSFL

**Q.** `O=c1[nH]c2cnc(-n3cnc4ccc(F)cc43)nc2n1[C@@H]1CCOc2c(F)cccc21` was tested. Which Ki did it give?
**A.** > 10 µM

**Q.** Which Ki does the source give for `CNC1CCN(c2nc3[nH]cc(C(=O)O)c(=O)c3c(C)c2Br)C1` (configuration not stated) here?
**A.** > 10 µM

**Q.** How did the Ki turn out when `CC(C)c1nnc2ccc(-c3c(-c4ccc(F)cc4F)nc4occn34)nn12` was run?
**A.** > 10 µM

**Q.** How did the Ki turn out when `CCOc1nc(C(=O)NCc2ccc(S(C)(=O)=O)cc2)cc(N)c1C#N` was run?
**A.** > 6.31 µM

**Q.** With `COc1cc(C=O)c(Cl)cc1NC(=O)Nc1cnc(C#N)cn1` as the compound, how does the Ki read?
**A.** > 10 µM

**Q.** `Cn1nc(N)c2c(-c3ccc(NC(=O)Nc4cccc(C(F)(F)F)c4)cc3)cncc21` was tested. Which Ki did it give?
**A.** > 10 µM

**Q.** For `COC(=O)c1cc2c(-c3cccc(F)c3)cncc2s1`, which Ki is on record?
**A.** > 10 µM

**Q.** How did the Ki turn out when `CCN(CC)CCNC(=O)/C=C/c1cnc(N)c2c(-c3ccc(NC(=O)Nc4cccc(C)c4)cc3)csc12` was run?
**A.** 2 µM

**Q.** `CC(C)(C)c1n[nH]c2c1C(c1ccccc1F)C(C#N)=C(N)O2` (configuration not stated) was tested. Which Ki did it give?
**A.** > 10 µM

**Q.** Which Ki does the source give for `COCCn1cc(-c2ccncn2)c(-c2ccc(Cl)cc2)n1` here?
**A.** > 10 µM

**Q.** `COc1cc(-c2ccc3c(c2)Nc2ccc(C(=O)NCc4cccc(F)c4)cc2NC3=O)ccc1O` was tested. Which Ki did it give?
**A.** > 10 µM

**Q.** `Nc1ncnc2c1N=C(c1ccc(NC(=O)Nc3cc(C(F)(F)F)ccc3F)cc1)CCN2` was tested. Which Ki did it give?
**A.** 2.51 µM

**Q.** `CC(C)N(C(=O)Nc1ccc2nc(-c3ccco3)c(-c3ccco3)nc2c1)C(C)C` was tested. Which Ki did it give?
**A.** > 10 µM

**Q.** `CC(C)Cn1c(N)nc2c(F)cc(-c3c(-c4ccc(F)cc4)nc4sccn34)cc21` was tested. Which Ki did it give?
**A.** > 10 µM

**Q.** For `COc1ccc(C(=O)Nc2n[nH]c3ccc(-c4cn(Cc5ccccc5)nn4)cc23)cc1OC`, which Ki is on record?
**A.** 1 µM

**Q.** Which Ki does the source give for `COc1cc(-c2ccc3c(c2)NC(=O)c2ccc(-c4ccccc4NS(C)(=O)=O)cc2N3)cc(OC)c1OC` here?
**A.** > 7.94 µM

**Q.** `O=C(N/N=C/c1ccc(O)cc1O)Nc1cccc2nsnc12` was tested. Which Ki did it give?
**A.** 0.126 µM

**Q.** With `CC(C)(CO)c1nnc2ccc(-c3c(-c4ccc(F)cc4F)nc4occn34)nn12` as the compound, how does the Ki read?
**A.** > 10 µM

**Q.** Which Ki does the source give for `C[C@@H](N)C1CCC(C(=O)Nc2ccncc2)CC1` (some centres not stated) here?
**A.** > 10 µM

**Q.** How did the Ki turn out when `NC(=O)c1cc(-c2ccnc(N)n2)[nH]c1-c1ccc(Cl)cc1Cl` was run?
**A.** 1.58 µM

**Q.** With `CC1=NN(c2ccc(C(=O)O)cc2)C(=O)/C1=C/c1c(C)c(C#N)c2nc3ccccc3n2c1O` as the compound, how does the Ki read?
**A.** > 10 µM

**Q.** With `Nc1noc2cccc(-c3cccc(O)c3)c12` as the compound, how does the Ki read?
**A.** > 10 µM

**Q.** For `COc1cc(Nc2ncc3c(n2)-c2ccc(Cl)cc2C(c2c(F)cccc2OC)=NC3)ccc1C(=O)O`, which Ki is on record?
**A.** > 10 µM

**Q.** Which Ki does the source give for `NC(=O)c1cccc2[nH]c(-c3cccc(NCCN4CCCC4)n3)nc12` here?
**A.** > 10 µM

**Q.** Which Ki does the source give for `Cc1ccc(Cn2cc(-c3ccc4[nH]ncc4c3)nn2)c(C)c1` here?
**A.** 3.16 µM

**Q.** `O=C1NCCc2[nH]c(-c3ccnc(-c4cnc5ccccc5c4)c3)cc21` was tested. Which Ki did it give?
**A.** > 10 µM

**Q.** With `O=C(N[C@H](CO)c1ccccc1)N1CC=C(c2c[nH]c3ncccc23)CC1` as the compound, how does the Ki read?
**A.** 0.398 µM

**Q.** Which Ki does the source give for `CCn1c2cc(Cl)c(F)cc2c(=O)c2c(=O)o[nH]c21` here?
**A.** > 10 µM

**Q.** With `O=C1Cc2c([nH]c3ccc(Br)cc23)-c2ccccc2N1` as the compound, how does the Ki read?
**A.** > 10 µM

**Q.** With `O=C(Nc1cccc(-c2nc3sccn3c2-c2ccnc(Nc3cccc(N4CCCC4=O)c3)n2)c1)c1c(F)cccc1F` as the compound, how does the Ki read?
**A.** > 10 µM

**Q.** Which Ki does the source give for `Cc1cc(C)c2c(n1)sc1c(N)ncnc12` here?
**A.** 3.16 µM

**Q.** With `Cc1ccc(F)c(NC(=O)Nc2ccc(-c3nsc4ncnc(N)c34)cc2)c1` as the compound, how does the Ki read?
**A.** > 10 µM

**Q.** For `O=C1Nc2cc(CCOc3ccc(N4CCOCC4)cc3)ccc2Nc2cc(-c3cn(Cc4cc(F)c(F)c(F)c4)c4cnccc34)ccc21`, which Ki is on record?
**A.** > 10 µM

**Q.** Which Ki does the source give for `Cc1cccc(NC(=O)Nc2ccc(-c3csc4c(C#Cc5cccnc5)cnc(N)c34)cc2)c1` here?
**A.** > 10 µM

**Q.** With `N#Cc1ncc2nc1OCCCCCOc1cc(OCC(O)CO)c(Cl)cc1NC(=O)N2` (configuration not stated) as the compound, how does the Ki read?
**A.** > 10 µM

**Q.** How did the Ki turn out when `CSc1cnc2c(ccc3cnccc32)c1O` was run?
**A.** 0.158 µM

**Q.** Which Ki does the source give for `Oc1cccc(Nc2ncnc3scc(Cl)c23)c1` here?
**A.** > 10 µM

**Q.** Which Ki does the source give for `c1ccc(-c2c[nH]c3ncnc(N4CCCCC4)c23)cc1` here?
**A.** > 6.31 µM

**Q.** How did the Ki turn out when `CCCCNc1ccc2c3c(cccc13)C(=O)N(CCNCCO)C2=O` was run?
**A.** > 10 µM

**Q.** For `COc1cc(Nc2ncc(F)c(Nc3ccc4c(n3)NC(=O)C(C)(C)O4)n2)cc(OC)c1OC`, which Ki is on record?
**A.** > 7.94 µM

**Q.** `O=c1c(NCc2ccc(Cl)c(Cl)c2)c(Nc2ccncc2)c1=O` was tested. Which Ki did it give?
**A.** 0.501 µM

**Q.** `CNC(=O)N1CCN(CCCOc2ccc3c(c2)-c2[nH]nc(-c4ccc(C#N)nc4)c2C3)CC1` was tested. Which Ki did it give?
**A.** > 10 µM
